# Tests used:
# C57BL/6J mice = assay: Tail suspension test; format: in vivo; details: after 7 days, 1 injection/day, versus saline
# [1] = tested on: glial glutamate uptake transporter; details: Rothstein et al., Nature 2005; cited from earlier work
# [2] = tested on: animal model of Amyotrophic Lateral Sclerosis (ALS); details: by increasing glutamate transport, L-[3H] glutamate uptake into cortical membrane; Rothstein et al. 2005; cited from earlier work
# [3] = tested on: transgenic mice expressing cholera toxin subunit in dopamine D1 receptor-expressing limbic cortical cells; details: cited from earlier work; for perseverative (OCD-like) behaviors: baseline behaviors of the transgenic mice
# [4] = tested on: patient with SRI-refractory OCD; assay: Case report two: N-acetylcysteine augmentation of fluvoxamine in SRI-refractory OCD; format: in vivo, human
# Description: A person presented to our clinic seeking help for persistent and severe OCD symptoms. Diagnosis of OCD was confirmed using the Structured Clinical Interview for DSM-IV Axis I Disorders-Clinician Version. First et al., Structured clinical interview for DSM-IV Axis I Disorders (SCID-I Clinician Version), American Psychiatric Press, Inc., Washington, D.C., 1997. After informed consent, a person was admitted to the Clinical Neuroscience Research Unit of the Abraham Ribicoff Research Facilities (New Haven, Conn.) and treated clinically with an off-label use of NAC augmentation of fluvoxamine. OCD symptoms were followed using weekly Yale-Brown Obsessive-Compulsive Scale (Y-BOCS) ratings. NAC (United States Pharmacia grade and in capsule form) was initiated at a starting dose of 600 mg PO daily and titrated upward to a total daily dose of 3 grams per day over 6 weeks. NAC was continued at the dose of 3 grams per day for an additional seven weeks. Fluvoxamine 300 mg was continued throughout the NAC treatment period. A person remained on the inpatient unit throughout the treatment period and received supportive psychotherapy. […] In fact, they were resistant to implementing behavioral interventions given the past failure of such interventions.
# [5] = tested on: patient with severe, chronic TTM; assay: Case report one: riluzole in trichotillomania and recurrent major depression; format: in vivo, human
# [6] = tested on: patients with anxiety symptoms; assay: Riluzole addition in patients with anxiety and mood symptoms (HAM-A); format: in vivo, human
# [7] = tested on: patients with treatment-resistant depression; assay: Riluzole addition in control group with treatment-resistant depression; details: control group with treatment-resistant depression alone
# [8] = tested on: patient with Trichotillomania; assay: Case report: riluzole addition in trichotillomania; format: in vivo, human
smiles,measurement,setting,value
"CO/N=C(\C(=O)N[C@@H]1C(=O)N2C(C(=O)O)=C(CSc3nc(=O)c(=O)[nH]n3C)CS[C@H]12)c1csc(N)n1 [Ceftriaxone, ceftriaxone]",decrease in the immobility time,"C57BL/6J mice; C57BL/6J males, 10 animals/group",~20%
same,bouts of immobility,C57BL/6J mice,decreased bouts of immobility
same,latency,C57BL/6J mice,trend for increased latency
same,upregulation of the glial glutamate transporter,[1],upregulated the glial glutamate transporter more so than many other drugs
same,neuroprotection,[2],neuroprotective
C[C@]12N[C@H](Cc3ccccc31)c1ccccc12 [MK-801],perseverative (OCD-like) behaviors,[3],worsen
"CC(=O)N[C@@H](CS)C(=O)O [NAC, N-acetylcysteine]",Y-BOCS score,"[4]; NAC 600 mg daily titrated to 3 grams per day over 6 weeks, continued seven weeks, fluvoxamine 300 mg",dramatically decreased
same,side effects,[4]; NAC up to 3 grams per day,"a few episodes of mild, brief right hand tingling and a single day of xerostomia"
same,routine lab monitoring,[4]; over the course of admission,no further abnormalities
same,OCD symptoms at follow-up,"[4]; two month follow-up visit, same dose of NAC and fluvoxamine",remained improved
NS(=O)(=O)c1cccc2c1c([N+](=O)[O-])cc1nc(O)c(O)nc12 [NBQX],perseverative (OCD-like) behaviors,[3],does not affect
same,worsening of OCD-like behaviors induced by MK-801,[3]; transgenic mice given MK-801,does not attenuate
"Nc1nc2ccc(OC(F)(F)F)cc2s1 [Riluzole, riluzole]",urges to pull hair at follow-up,"[5]; 72 weeks after initiating riluzole, 100 mg twice a day",minimal and readily ignored
same,"TTM ratings (PITS, MGH Hairpulling Scale)","[5]; at presentation PITS 23, MGH 17, after up-titration of riluzole",corresponding fall
same,HAM-D at presentation,"[5]; before riluzole, on escitalopram 30 mg daily",26
same,HAM-D,"[5]; week 16, riluzole titrated from 50 mg twice a day to 200 mg daily",7
same,urges to pull hair,[5]; with up-titration of riluzole to 150 mg and then 200 mg daily,vanished entirely
same,reduction in HAM-A scores post study treatment,"[6]; Subjects P3, P5, P6, P7, P11, P12",≥ 35%
same,HAM-A scores for the group over time,[6]; riluzole 50 mg twice a day,significantly improved
same,tolerability / adverse effects,[6]; riluzole 50 mg twice a day,well tolerated with no serious adverse effects noted
same,Mean Pre-Treatment HAM-A,"[6]; thirteen participants, before riluzole",18.2+/−6.2
same,Mean Post-Treatment HAM-A,"[6]; thirteen participants, riluzole 50 mg twice a day added to existing pharmacotherapy",12.8+/−7.2
same,HAM-D scores in response to riluzole,[7],significant improvement
same,Trichotillomania symptoms,"[8]; A person, riluzole up to 100 mg twice a day",cessation of Trichotollomania symptoms
same,Reduction in PITS score,"[8]; after 6 weeks of riluzole addition to Lexapro 30 mg, 50 mg titrated to 100 mg twice a day",74%
same,Reduction in MGH Pulling Scale Score,[8]; after 12 weeks of treatment with riluzole,> 35%

# — patent US10052318B2, “Glutamate agents in the treatment of mental disorders” (YALE UNIVERSITY, priority 2005, dated 2018)
